Assay results: patent publication EP4572800B1, “TETRAZINES WITH IMPROVED PROPERTIES” (Tagworks Pharmaceuticals B.V., priority 2023, dated 2024)

Assays:
[1] = test system: calcium channel L-type, dihydropyridine; experiment: Transporter ligand binding inhibition, calcium channel L-type; parameters: species or system rats; conditions: for % Calcium channel L-type dihydropyridine inhibition: final concentration of tetrazine 10 µM, rat, ligand binding
Method: (§1) In this Example, the inhibition of several physiologically relevant target proteins (viz. enzymes and a transporter) by tetrazines were tested in vitro. The enzymes tested were cyclooxygenase (COX-1), acetyl cholinesterase (ACES), and monoamine oxidase (MAO-B), and the tested transporter was calcium channel L-type, dihydropyridine. COX-1, ACES, and MAO-B from humans was used, while calcium channel L-type, dihydropyridine from rats was used. Standard literature protocols were used, and relevant controls were included to ensure the validity of the results. The target proteins were mixed with tetrazine 2.1 (reference), 2.4, 2.5, 2.7, or 2.10 (final concentration of tetrazine 10 µM) in appropriate buffers. The final concentrations for the respective target proteins depended on the standard protocol used, but for each individual target protein this concentration was the same for the different tetrazines tested. After an appropriate incubation time at an appropriate temperature, the enzymatic activity of the enzyme or the ligand binding in case of the transporter was tested in accordance with standard procedures from literature. From this remaining enzymatic activity or ligand binding, the percentage of inhibition was determined.

[2] = target: T1, monoamine oxidase (MAO-B) (Homo sapiens, UniProt P27338); experiment: Enzyme inhibition study, MAO-B; assay type: biochemical, humans; conditions: for % MAO-B inhibition: final concentration of tetrazine 10 µM, human MAO-B
T1 sequence (P27338 1-520): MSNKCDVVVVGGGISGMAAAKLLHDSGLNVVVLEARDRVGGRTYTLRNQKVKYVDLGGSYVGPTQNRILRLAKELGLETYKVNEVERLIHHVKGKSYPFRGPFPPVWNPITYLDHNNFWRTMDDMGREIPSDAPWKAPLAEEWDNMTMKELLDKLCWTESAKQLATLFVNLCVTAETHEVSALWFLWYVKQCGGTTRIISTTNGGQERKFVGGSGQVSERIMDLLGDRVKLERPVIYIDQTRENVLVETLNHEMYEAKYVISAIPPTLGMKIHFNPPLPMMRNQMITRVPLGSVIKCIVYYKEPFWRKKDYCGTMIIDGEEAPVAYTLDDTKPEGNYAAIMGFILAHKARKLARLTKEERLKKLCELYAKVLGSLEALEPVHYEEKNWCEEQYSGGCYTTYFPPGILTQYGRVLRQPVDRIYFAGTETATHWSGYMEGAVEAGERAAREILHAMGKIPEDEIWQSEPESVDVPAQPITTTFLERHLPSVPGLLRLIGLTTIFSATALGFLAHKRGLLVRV
Method: as §1

cyclooxygenase (COX-1) = cyclooxygenase (COX-1) (Homo sapiens, UniProt P23219); experiment: Enzyme inhibition study, COX-1; assay type: biochemical, humans; conditions: for % COX-1 inhibition: final concentration of tetrazine 10 µM, human COX-1
Chain of cyclooxygenase (COX-1) (P23219 24-599): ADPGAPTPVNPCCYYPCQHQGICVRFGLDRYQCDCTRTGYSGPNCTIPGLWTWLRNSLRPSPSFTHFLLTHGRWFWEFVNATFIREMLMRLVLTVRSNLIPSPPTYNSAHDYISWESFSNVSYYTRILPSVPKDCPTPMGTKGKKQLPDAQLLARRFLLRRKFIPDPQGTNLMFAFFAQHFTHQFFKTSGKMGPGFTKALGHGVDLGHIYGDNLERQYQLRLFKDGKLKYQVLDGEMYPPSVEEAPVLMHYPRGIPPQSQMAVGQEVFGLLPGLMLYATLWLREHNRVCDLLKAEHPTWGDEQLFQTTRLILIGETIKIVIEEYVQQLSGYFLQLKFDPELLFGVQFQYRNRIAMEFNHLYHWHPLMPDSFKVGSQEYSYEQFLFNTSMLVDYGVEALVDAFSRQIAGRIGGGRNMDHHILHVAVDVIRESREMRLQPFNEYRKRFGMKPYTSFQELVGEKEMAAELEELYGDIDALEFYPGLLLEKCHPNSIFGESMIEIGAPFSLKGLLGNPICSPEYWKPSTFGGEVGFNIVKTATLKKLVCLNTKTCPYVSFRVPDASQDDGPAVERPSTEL
Method: as §1

[3] = target: acetyl cholinesterase (ACES) (Homo sapiens, UniProt P22303); experiment: Enzyme inhibition study, ACES; assay type: biochemical, humans; conditions: for % ACES inhibition: final concentration of tetrazine 10 µM, human ACES
Chain of acetyl cholinesterase (ACES) (P22303 32-614): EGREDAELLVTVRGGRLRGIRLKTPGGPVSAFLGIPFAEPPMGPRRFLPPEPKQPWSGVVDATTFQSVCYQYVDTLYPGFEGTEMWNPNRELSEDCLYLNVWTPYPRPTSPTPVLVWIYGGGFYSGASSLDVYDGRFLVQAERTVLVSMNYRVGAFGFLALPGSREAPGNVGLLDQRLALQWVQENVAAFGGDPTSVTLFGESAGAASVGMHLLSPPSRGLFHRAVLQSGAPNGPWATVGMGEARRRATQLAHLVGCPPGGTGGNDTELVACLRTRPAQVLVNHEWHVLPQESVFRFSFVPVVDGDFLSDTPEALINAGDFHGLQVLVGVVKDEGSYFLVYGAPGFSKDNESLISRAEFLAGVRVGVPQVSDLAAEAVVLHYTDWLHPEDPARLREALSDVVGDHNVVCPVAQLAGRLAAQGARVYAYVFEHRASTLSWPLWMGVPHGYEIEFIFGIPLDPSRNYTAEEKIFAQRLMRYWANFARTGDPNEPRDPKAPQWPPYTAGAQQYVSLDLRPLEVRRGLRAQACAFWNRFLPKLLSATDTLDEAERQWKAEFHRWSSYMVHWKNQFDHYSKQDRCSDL
Method: as §1

[4] = Maximum tolerated dose (MTD) study in mice, single intravenous dose; assay type: in vivo; conditions: both sexes, Swiss albino, mouse, in vivo, iv, mice, single intravenous dose, observed up to 72 hours post-dose
Method: (§2) In this Example, groups of Swiss albino mice (an equal number of male and female animals) were subjected to a single dose of tetrazine 2.1 (reference), 2.4, 2.5, 2.7, or 2.10. Different groups were used for different doses. […] Control groups were also used, wherein mice were only administered vehicle (phosphate-buffered saline (PBS) pH 7.4) without tetrazine ("vehicle control").
(§3) Mice were treated in line with ethical guidelines. […] Environmental controls for the animal room were set to maintain a temperature of 22 to 25°C, humidity of 30-70% RH, and a 12-h light/12-h dark cycle.
(§4) The dose formulations were prepared as follows. Tetrazine 2.1 (reference), 2.4, 2.5, 2.7, or 2.10 was dissolved in PBS pH 7.4 to prepare separate stock solutions of each tetrazine. […] Further dilutions of the tetrazine stock solutions were done with PBS pH 7.4 to achieve a desired concentration.
(§5) Mice were dosed on day 1 by intravenously administering the dose formulation (expressed in µmol of tetrazine per kg body weight of the mouse). Thereafter, the mice were observed up to 72 hours post-dose for any signs of mortality. The number of dead mice after 72 hours ("mortality") was then divided by the original number of mice.

Swiss albino mice = experiment: as above; assay type: in vivo; conditions: 72 hours
Method: as §2, §3, §4, §5

With O=C(O)CN(CCN(CC(=O)O)CC(=O)Nc1ccc(-c2nnc(-c3ccccn3)nn2)nc1)CC(=O)O [2.4, 2,2'-((2-((Carboxymethyl)(2-oxo-2-((6-(6-(pyridin-2-yl)-1,2,4,5-tetrazin-3-yl)pyridin-3-yl)amino)ethyl)amino)ethyl)azanediyl)diacetic acid] the “% Calcium channel L-type dihydropyridine inhibition” value [1] was 10%, the “% MAO-B inhibition” value [2] was 20% and the “% COX-1 inhibition” value (cyclooxygenase (COX-1)) was 53%. The “% ACES inhibition” value [3] was 11%, the MTD at 72 h [4] was no less than 57 µmol/kg and the “No. of mortality vs. total no. of mice” value (Swiss albino mice; 19 µmol/kg i.v. single dose) was 0 out of 6. For the same compound, the “No. of mortality vs. total no. of mice” value (Swiss albino mice; 57 µmol/kg i.v. single dose) was 0 out of 6 and the “No. of mortality vs. total no. of mice” value (Swiss albino mice; 95 µmol/kg i.v. single dose) was 4 out of 4.
For O=C(O)CCOCCOCCOCCC(=O)Nc1ccc(-c2nnc(-c3ccccn3)nn2)nc1 [2.7, 3-(2-(2-(3-Oxo-3-((6-(6-(pyridin-2-yl)-1,2,4,5-tetrazin-3-yl)pyridin-3-yl)amino)propoxy)ethoxy)ethoxy)propanoic acid], the “% Calcium channel L-type dihydropyridine inhibition” value [1] was -17%, the “% MAO-B inhibition” value [2] was 38% and the “% COX-1 inhibition” value (cyclooxygenase (COX-1)) was 37%. The “% ACES inhibition” value [3] was 22%, the “No. of mortality vs. total no. of mice” value (Swiss albino mice; 103 µmol/kg i.v. single dose) was 0 out of 6 and the “No. of mortality vs. total no. of mice” value (Swiss albino mice; 207 µmol/kg i.v. single dose) was 0 out of 6. The “No. of mortality vs. total no. of mice” value (Swiss albino mice; 621 µmol/kg i.v. single dose) was 0 out of 6.
In the case of O=C(O)CN1CCN(CC(=O)O)CCN(CC(=O)NCCOCCOCCOCCOCCOCCOCCOCCOCCOCCOCCOCCNC(=O)CCCC(=O)Nc2ccc(-c3nnc(-c4ccccn4)nn3)nc2)CCN(CC(=O)O)CC1 [compound 2.1, 2,2',2''-(10-(2,40,44-Trioxo-44-((6-(6-(pyridine-2-yl)-1,2,4,5-tetrazin-3-yl)pyridine-3-yl)amino)-6,9,12,15,18,21,24,27,30,33,36-undecaoxa-3,39-diazatetratetracontyl)-1,4,7,10-tetraazacyclododecane-1,4,7-triyl)triacetic acid, reference compound], the “% Calcium channel L-type dihydropyridine inhibition” value [1] is reported as 44%, the “inhibition of calcium channel L-type, dihydropyridine, in words” value ([1]; statement in description) is reported as “strongly inhibits” and the “% MAO-B inhibition” value [2] is reported as 36%. The “inhibition of monoamine oxidase (MAO-B), in words” value ([2]; statement in description) was “strongly inhibits”, the “% COX-1 inhibition” value (cyclooxygenase (COX-1)) was 59% and the “inhibition of cyclooxygenase (COX-1), in words” value (cyclooxygenase (COX-1); statement in description) was “strongly inhibits”. The “% ACES inhibition” value [3] was 44%, the “inhibition of acetyl cholinesterase (ACES), in words” value ([3]; statement in description) was “strongly inhibits” and the MTD at 72 h [4] was roughly 39 µmol/kg. The “No. of mortality vs. total no. of mice” value (Swiss albino mice; 8 µmol/kg i.v. single dose) was 0 out of 6, the “No. of mortality vs. total no. of mice” value (Swiss albino mice; 39 µmol/kg i.v. single dose) was 0 out of 6 and the “No. of mortality vs. total no. of mice” value (Swiss albino mice; 78 µmol/kg i.v. single dose) was 4 out of 6.
For O=C([O-])CN(CCN(CC(=O)[O-])CC(=O)Nc1ccc(-c2nnc(-c3ccccn3)nn2)nc1)CC(=O)[O-].[Ca+2].[Na+] [2.5, Calcium sodium 2-({2-[bis(carboxylatomethyl)amino]ethyl)[({6-[6-(pyridin-2-yl)-1,2,4,5-tetrazin-3-yl]pyridin-3-yl}carbamoyl)methyl]amino)acetate], the “% Calcium channel L-type dihydropyridine inhibition” value [1] was 1%, the “% MAO-B inhibition” value [2] was 9% and the “% COX-1 inhibition” value (cyclooxygenase (COX-1)) was 18%. For the same compound, the “% ACES inhibition” value [3] was -1%, the “No. of mortality vs. total no. of mice” value (Swiss albino mice; 85 µmol/kg i.v. single dose) was 0 out of 6 and the “No. of mortality vs. total no. of mice” value (Swiss albino mice; 171 µmol/kg i.v. single dose) was 0 out of 6. The “No. of mortality vs. total no. of mice” value (Swiss albino mice; 512 µmol/kg i.v. single dose) was 0 out of 6.
With O=C(O)CN(CC(=O)O)CC(=O)Nc1ccc(-c2nnc(-c3ccccn3)nn2)nc1 [2.10, 2,2'-((2-Oxo-2-((6-(6-(pyridin-2-yl)-1,2,4,5-tetrazin-3-yl)pyridin-3-yl)amino)ethyl)azanediyl)diacetic acid] the “% Calcium channel L-type dihydropyridine inhibition” value [1] was -3%, the “% MAO-B inhibition” value [2] was 22% and the “% COX-1 inhibition” value (cyclooxygenase (COX-1)) was 14%. For the same compound, the “% ACES inhibition” value [3] was 5%, the “No. of mortality vs. total no. of mice” value (Swiss albino mice; 118 µmol/kg i.v. single dose) was 0 out of 6 and the “No. of mortality vs. total no. of mice” value (Swiss albino mice; 177 µmol/kg i.v. single dose) was 0 out of 6. For the same compound, the “No. of mortality vs. total no. of mice” value (Swiss albino mice; 236 µmol/kg i.v. single dose) was 0 out of 6.
